The text below walks through data of ChEMBL document CHEMBL1128137, “A novel series of highly potent 5-lipoxygenase inhibitors; 2-aryldienylbenzoxazoles” (Bioorg Med Chem Lett, 1995).

pIC50: −log10 of the molar value.

The term pIC50 denotes the IC50 on a negative log10 scale, so that one unit is a factor of ten. Low values mean a high IC50, high ones a low IC50.

The assay concerns the target T1, Polyunsaturated fatty acid 5-lipoxygenase (Rattus norvegicus, UniProt P12527).
T1 sequence (P12527 whole entry): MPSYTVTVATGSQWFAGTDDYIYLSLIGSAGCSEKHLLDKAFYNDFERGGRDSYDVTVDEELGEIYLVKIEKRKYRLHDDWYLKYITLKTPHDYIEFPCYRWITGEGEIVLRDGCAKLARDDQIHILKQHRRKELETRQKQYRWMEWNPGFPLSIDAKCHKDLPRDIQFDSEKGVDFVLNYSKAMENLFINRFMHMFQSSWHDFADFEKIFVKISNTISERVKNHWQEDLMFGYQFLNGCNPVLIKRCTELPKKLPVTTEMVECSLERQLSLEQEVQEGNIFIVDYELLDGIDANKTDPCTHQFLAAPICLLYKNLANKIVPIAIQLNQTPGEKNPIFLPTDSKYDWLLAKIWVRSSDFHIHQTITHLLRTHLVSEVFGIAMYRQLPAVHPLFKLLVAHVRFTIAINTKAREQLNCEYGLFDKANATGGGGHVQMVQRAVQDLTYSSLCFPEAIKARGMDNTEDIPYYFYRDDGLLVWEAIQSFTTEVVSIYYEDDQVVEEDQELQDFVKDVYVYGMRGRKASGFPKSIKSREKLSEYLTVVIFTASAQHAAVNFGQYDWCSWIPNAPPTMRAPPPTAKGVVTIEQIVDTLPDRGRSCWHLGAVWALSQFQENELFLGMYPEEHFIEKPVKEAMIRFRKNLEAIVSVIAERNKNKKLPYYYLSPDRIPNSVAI
Nature of the assay: Inhibition of 5-lipoxygenase of rat basophilic leukemia (RBL) cell cytosolic enzymes. Also on record: species or system RBL-1.
Take `COc1cc(/C=C/C=C/c2nc3c(ccc4ccccc43)o2)ccc1O`: the pIC50 is 6.77.

For the molecule `COc1cc(/C=C/C=C/c2nc3cc(Cl)ccc3o2)ccc1O`, the negative-log IC50 (pIC50) was 6.42.

`COc1cc(/C=C/C=C/c2nc3cc(C)ccc3o2)ccc1O` had a pIC50 of 6.54.

As to `COc1cc(/C=C/C=C/c2nc3ncccc3o2)ccc1O`, the negative logarithm of the IC50 (pIC50) is 6.43.

`Oc1ccc(/C=C/C=C/c2nc3ccccc3o2)cc1O` had a pIC50 of 7.52.

`COc1cc(/C=C/C=C/c2nc3ccccc3o2)ccc1O` gave a negative-log IC50 (pIC50) of 6.48.

Take `CCOC(=O)c1ccc2oc(/C=C/C=C/c3ccc(O)c(O)c3)nc2c1`: the negative-log IC50 (pIC50) is 7.70.

Consider `COc1cc(/C=C/C=C/C(=O)NCCN2CCC(OC(c3ccccc3)c3ccccc3)CC2)ccc1O`, for which the pIC50 is 6.82.

With `COc1cc(/C=C/C=C/c2nc3cc(CO)ccc3o2)ccc1O`, the pIC50 was 6.59.

`COc1cc(/C=C/C=C/c2nc3cc(C(=O)O)ccc3o2)ccc1O`: the negative logarithm of the IC50 (pIC50) was 5.24.

Consider `COc1cc(/C=C/C=C/c2nc3ccc(CO)cc3o2)ccc1O`, for which the negative logarithm of the IC50 (pIC50) was 6.52.

The molecule `CCOC(=O)/C=C/c1ccc(O)c(O)c1` [ETHYL CAFFEATE] showed a pIC50 of 5.94.

In turn, `CCOC(=O)c1ccc2nc(/C=C/C=C/c3ccc(O)c(OC)c3)oc2c1` had a negative logarithm of the IC50 (pIC50) of 6.89.

On to `CCOC(=O)c1ccc2oc(/C=C/C=C/c3ccc(O)c(OC)c3)nc2c1`, for which the pIC50 is 6.60.
